In US20100249082A1, “MODULATORS OF HYPOXIA INDUCIBLE FACTOR-1 AND RELATED USES” (Bionaut Pharmaceuticals INC., priority 2007, published 2010):

Columns and labels:
[1] = molecular target: T1, Na^+, K^+-ATPase (Homo sapiens, UniProt P05023); assay: cell-based; details: for inhibition at 0.01 µM / inhibition at 0.1 µM / inhibition at 1 µM / inhibition at 5 µM / inhibition at 10 µM / inhibition at 50 µM: HEK293, HEK-293; for inhibition at 0.01 µM: Log[drug](M) −8.0; for inhibition at 5 µM: Log[drug](M) −5.3; for inhibition at 10 µM: Log[drug](M) −5.0; for inhibition at 50 µM: Log[drug](M) −4.3; for Rank order: HEK-293, ranked on potency (IC50 value); for Sample Solubility: HEK-293 screen test wells, 1% DMSO
T1 construct: The HEK-293 cell line endogenously expressing Na^+, K^+-ATPase; endogenous in cells; host or cells: HEK-293
Protocol: Cells were plated at a density of 50,000 cells/well in 96-well microplates and incubated at 37° C., 5% CO2 until 80-90% confluency was attained

[2] = molecular target: Na^+, K^+-ATPase (Cricetulus griseus, UniProt A0A8C2N4Z0); assay: cell-based
Protocol: (§1) Compounds were screened using Ion Channel Research (ICR) technology and a non-radioactive Rubidium Uptake Assay
(§2) For all the test compounds and standard blockers, 100× solutions were used to prepare 1× test doses for Na^+, K^+-ATPase screen in CHO cell line. The final DMSO concentration in each well was 1%.
(§3) • 1. […] Rb^+ Uptake: Cells were washed with 200 μl of Rb^+ Uptake Buffer once and R^+ loaded by application of 198 μl R^+ Uptake Buffer. Compounds were added at 2 μl/well of a 100× stock solution in 100% DMSO in the uptake buffer followed by incubation for 30 minutes at room temperature (c. 22° C.). The total volume in each well was 200 μl (198 μl of R^+ Uptake Buffer and 2 μl of the 100× compound). The 100× compound solution gets diluted in R^+ Uptake Buffer to 1× and the DMSO to 1%. • 3. Wash: Residual R^+ and compound were removed by four successive washes with 200 μl of SPA-Wash Buffer. • 4. Cell Lysis: Intracellular samples were obtained by whole cell lysis with the application of 200 μl Lysis Solution. • 5. Analysis: The level of R^+ in the intracellular samples was measured by ICR8000 (Aurora Biomed Inc., Vancouver, Canada). using flame atomic absorption spectroscopy.

[3] = test system: Na^+, K^+-ATPase; assay: cell-based; details: for Inhibition (%) / Normalized Uptake (%): CHO-K1; for Sample Solubility: CHO-K1 screen test wells, 1% DMSO
Protocol: as §1, §2, §3

[4] = Sample solubility noted in the rubidium uptake assay; type: physicochemical; details: DMSO 1.0%

| Structure (SMILES) | IC50 [1] [µM] | Rank order [1] | IC50 [2] [µM] | Inhibition (%) ([3]; dose 1.0 uM) | Normalized Uptake (%) ([3]; dose 1.0 uM) | Inhibition (%) ([3]; dose 5.0 uM) | Normalized Uptake (%) ([3]; dose 5.0 uM) | Inhibition (%) ([3]; dose 10 uM) | Normalized Uptake (%) ([3]; dose 10 uM) | Inhibition (%) ([3]; dose 50 uM) | Normalized Uptake (%) ([3]; dose 50 uM) | Inhibition (%) ([3]; dose 100 uM) | Normalized Uptake (%) ([3]; dose 100 uM) | Inhibition (%) ([3]; dose 200 uM) | Normalized Uptake (%) ([3]; dose 200 uM) | Inhibition (%) ([3]; dose 500 uM) | Normalized Uptake (%) ([3]; dose 500 uM) | Sample Solubility [3] | Inhibition (%) ([3]; dose 0.50 uM) | Normalized Uptake (%) ([3]; dose 0.50 uM) | also measured |
| --- | --- | --- | --- | --- | --- | --- | --- | --- | --- | --- | --- | --- | --- | --- | --- | --- | --- | --- | --- | --- | --- |
| C[C@]12CCC(=NOCCCCN3CCCCC3)C=C1CCC1C2CC[C@]2(C)[C@@H](c3ccc(=O)oc3)CC[C@]12O (some centres unmarked) [BP247, 3-[4-(Piperidinobutoxy)imino]-scillarinone] | 0.183 | 1 | 47.4 | −0.3 | 96.2 | 9.2 | 88.2 | 15.2 | 83.2 | 44.9 | 58.3 | 67.7 | 39.0 | 89.0 | 21.1 | 100.0 | 11.9 | Good | – | – | inhibition at 0.01 µM [1]: 0%; inhibition at 0.1 µM ([1]; Log[drug](M) −7.0): 44.9%; inhibition at 0.1 µM ([1]; Log[drug](M) −7.3): 17.1%; inhibition at 1 µM ([1]; Log[drug](M) −6.0): 79.9%; inhibition at 1 µM ([1]; Log[drug](M) −6.3): 68.4%; inhibition at 5 µM [1]: 94.8%; inhibition at 10 µM [1]: 93.5%; inhibition at 50 µM [1]: 100%; Sample Solubility [1]: Good; inhibition at 0.5 µM ([2]; CHO-K1): 0%; remaining activity at 0.5 µM ([2]; CHO-K1, 0.5 h, read-out: Normalized Uptake (%)): 96% |
| C[C@]12CCC(=NOCCCCCN3CCCCC3)C=C1CCC1C2CC[C@]2(C)[C@@H](c3ccc(=O)oc3)CC[C@]12O (some centres unmarked) [BP248, 3-[5-(Piperidinopentoxy)imino]-scillarinone] | 5.55 | 4 | 27.9 | 0.0 | 105.6 | 9.1 | 96.6 | 27.0 | 81.1 | 61.2 | 51.5 | 84.1 | 31.6 | 94.0 | 23.1 | 100.0 | 17.9 | Good | 1.3 | 104.5 | inhibition at 0.01 µM [1]: 0%; inhibition at 0.1 µM ([1]; Log[drug](M) −7.0): 1.7%; inhibition at 0.1 µM ([1]; Log[drug](M) −7.3): 0.8%; inhibition at 1 µM ([1]; Log[drug](M) −6.0): 10.1%; inhibition at 1 µM ([1]; Log[drug](M) −6.3): 4.5%; inhibition at 5 µM [1]: 44.7%; inhibition at 10 µM [1]: 74%; inhibition at 50 µM [1]: 100%; Sample Solubility [1]: Good |
| C[C@]12CCC(=NOCCN3CCC(Cc4ccccc4)CC3)C=C1CCC1C2CC[C@]2(C)[C@@H](c3ccc(=O)oc3)CC[C@]12O (some centres unmarked) [BP249, 3-[2-(4-Benzylpiperidinoethoxy)imino]-scillarinone] | 5.53 | 4 | 41.9 | 0.0 | 103.5 | 2.6 | 100.7 | 17.9 | 87.9 | 54.2 | 57.3 | 73.4 | 41.0 | 87.8 | 29.0 | 100.0 | 18.7 | Good | 0.6 | 103.0 | Sample Solubility [4]: Good |
| C[C@H]1O[C@@H](O[C@H]2[C@@H](O)C[C@H](O[C@H]3[C@@H](O)C[C@H](O[C@H]4CC[C@@]5(C)[C@H](CC[C@@H]6[C@@H]5CC[C@]5(C)[C@@H](C7=CC(=O)OC7)CC[C@]65O)C4)O[C@@H]3C)O[C@@H]2C)C[C@H](O)[C@@H]1O [Digitoxin, reference compound] | 1.1 | 2 | 44.9 | 6.2 | 93.8 | 8.6 | 91.4 | 19.8 | 80.2 | 51.9 | 48.1 | 76.8 | 23.2 | – | – | 89.7 | 10.3 | – | 0.0 | 100.0 | Inhibition (%) ([3]; dose 1000 uM): 100.0%; Normalized Uptake (%) ([3]; dose 1000 uM): 0.0% |
